The text below walks through data of ChEMBL document CHEMBL4196009, “Novel vitexin-inspired scaffold against leukemia” (Eur J Med Chem, 2018).

Structures are written as SMILES.

Assay type in all cases: functional
Experiment [1] deals with SUP-B15. The experiment can be described thus: Induction of apoptosis in human SUP-B15 cells assessed as viable cells at 2 uM after 24 hrs by Annexin V-FITC/propidium iodide staining-based flow cytometry (reference value: 82.8%). The following applies: SUP-B15, 24 h, read-out: Activity. Background: A flow cytometer gives signals particle by particle.
Experiment [2] has as its system KOPN-8. The experiment can be described thus: Cell cycle arrest in human KOPN8 cells assessed as accumulation at G2/M phase at 2 uM after 24 hrs by propidium iodide staining-based flow cytometry (reference value: 9.67%).
For experiment [3], the system named is SUP-B15. The experiment in a line: Induction of apoptosis in human SUP-B15 cells assessed as late apoptotic cells at 2 uM after 24 hrs by Annexin V-FITC/propidium iodide staining-based flow cytometry (reference value: 2.2%).
The subject of experiment [4] is MDA-MB-231. The experiment can be described thus: Cell cycle arrest in human MDA-MB-231 cells assessed as accumulation at G0/G1 phase at 2.5 uM after 24 hrs by propidium iodide staining-based flow cytometry (reference value: 70.47%).
In experiment [5] the test system is KOPN-8. The experiment in a line: Cell cycle arrest in human KOPN8 cells assessed as accumulation at S phase at 2 uM after 24 hrs by propidium iodide staining-based flow cytometry (reference value: 66.56%).
Experiment [6] has as its system MDA-MB-231. The experiment can be described thus: Cell cycle arrest in human MDA-MB-231 cells assessed as accumulation at S phase at 2.5 uM after 24 hrs by propidium iodide staining-based flow cytometry (reference value: 20.15%).
Experiment [7] deals with SUP-B15. The experiment can be described thus: Induction of apoptosis in human SUP-B15 cells assessed as necrotic cells at 2 uM after 24 hrs by Annexin V-FITC/propidium iodide staining-based flow cytometry (reference value: 9.2%).
Experiment [8] deals with KOPN-8. The experiment can be described thus: Induction of apoptosis in human KOPN8 cells assessed as late apoptotic cells at 2 uM after 24 hrs by Annexin V-FITC/propidium iodide staining-based flow cytometry (reference value: 9.5%).
The subject of experiment [9] is MDA-MB-231. The experiment in a line: Cell cycle arrest in human MDA-MB-231 cells assessed as accumulation at G2/M phase at 2.5 uM after 24 hrs by propidium iodide staining-based flow cytometry (reference value: 9.38%).
The test system of experiment [10] is KOPN-8. The experiment can be described thus: Cell cycle arrest in human KOPN8 cells assessed as accumulation at G0/G1 phase at 2 uM after 24 hrs by propidium iodide staining-based flow cytometry (reference value: 24.77%).
The test system of experiment [11] is SUP-B15. The experiment in a line: Induction of apoptosis in human SUP-B15 cells assessed as early apoptotic cells at 2 uM after 24 hrs by Annexin V-FITC/propidium iodide staining-based flow cytometry (reference value: 0.1%).
In experiment [12] the test system is KOPN-8. The experiment can be described thus: Induction of apoptosis in human KOPN8 cells assessed as necrotic cells at 2 uM after 24 hrs by Annexin V-FITC/propidium iodide staining-based flow cytometry (reference value: 0.2%).
Experiment [13] has as its system KOPN-8. The experiment in a line: Induction of apoptosis in human KOPN8 cells assessed as viable cells at 2 uM after 24 hrs by Annexin V-FITC/propidium iodide staining-based flow cytometry (reference value: 85.2%). As to conditions: KOPN-8, 24 h, read-out: Activity.
For experiment [14], the system named is KOPN-8. The experiment in a line: Induction of apoptosis in human KOPN8 cells assessed as early apoptotic cells at 2 uM after 24 hrs by Annexin V-FITC/propidium iodide staining-based flow cytometry (reference value: 0.1%).

Take `CN[C@@H]1C[C@H]2O[C@@](C)([C@@H]1OC)n1c3ccccc3c3c4c(c5c6ccccc6n2c5c31)C(=O)NC4` [STAUROSPORINE]: the values for the viability at 2 µM in the experiment with SUP-B15 [1] and in the experiment on KOPN-8 [13] were 9.8% and 0.3%, respectively. Besides, the Activity in the experiment with KOPN-8 [2] worked out at 20.08%; in the experiment with SUP-B15 [3], 44.2%; with MDA-MB-231 [4], 50.99%; in the experiment with KOPN-8 [5] it was 30.37%; in the experiment with MDA-MB-231 [6], 42.21%; in the experiment with SUP-B15 [7], 39.4%. In addition, the Activity was determined as 74.4% with KOPN-8 [8]; 6.8% in the experiment on MDA-MB-231 [9]; 49.55% in the experiment on KOPN-8 [10]; 0.2% in the experiment with SUP-B15 [11]; 0.1% in the experiment with KOPN-8 [12]; 0.2% in the experiment with KOPN-8 [14].
